Test results published in patent US20240358692A1, “TREATMENT OF SCLERODERMA” (Aisa Pharma, Inc., priority 2023, published 2024).

Tested on: participants with SSc-RP
Assay: SHAQ - Visual Analog Scale - Breathing Problems
Type: in vivo, human
Design: Visual Analog Scale-Breathing Problems, In Clinic Visit (Day 12), Mean / Visual Analog Scale-Breathing Problems, In Clinic Visit (Day 12), Median / SHAQ Visual Analogue Scale - Breathing Problems, In-Clinic Visit (Day 12), Mean / SHAQ Visual Analogue Scale - Breathing Problems, In-Clinic Visit (Day 12), Median / SHAQ Visual Analogue Scale - Breathing Problems, Change from Baseline, Median: scale not given here
Conditions: for % improvement in Breathing: median, SHAQ, mITT Part A
Excerpt: The standard, validated, patient reported outcome measures tool for SSc patients, the Scleroderma Health Assessment Questionnaire (SHAQ), will be used to assess the participant qualify of life. Details are attached in the Appendix. The participant quality of life will be scored, and a disability index calculated for each questionnaire completed by the patient at Screening and each in-clinic visit. The absolute change in participant quality of life from baseline to the end of each dosing period will be calculated similar to frequency data as before.
The standard, validated, patient reported outcome measures tool for SSc patients, the SHAQ, was collected at the time points specified in the study schedules (FIG. 2 and FIGS. 4A and 4B) to assess the participant's quality of life. The SHAQ included a Raynaud's VAS that will also be reported separately.

[1] = Any Cilnidipine (N = 17), Day 12, PP Population, Part A, Subject 01-110 excluded
[2] = Cilnidipine 10 mg, SSc patients, PP, Part A
[3] = Cilnidipine 20 mg, SSc patients, PP, Part A
[4] = Modified ITT Population-Part A, Day 12, dose cilnidipine 10 mg, tadalafil 5 mg, alone or combined as labelled
[5] = Modified ITT Population-Part A, dose cilnidipine 20 mg, tadalafil 5 mg, alone or combined as labelled
[6] = Pooled Cilnidipine (N = 8), Day 12, PP Population, Part A
[7] = pooled Cilnidipine 10 mg and Cilnidipine 10 mg + Tadalafil 5 mg
[8] = pooled Cilnidipine 20 mg and Cilnidipine 20 mg + Tadalafil 5 mg
[9] = pooled cilnidipine 10 mg and 20 mg arms (combination: + tadalafil 5 mg)

COCCOC(=O)C1=C(C)NC(C)=C(C(=O)OC/C=C/c2ccccc2)C1c1cccc([N+](=O)[O-])c1 (stereo not drawn) [Cilnidipine]
SHAQ Visual Analogue Scale - Breathing Problems, Change from Baseline, Mean (SD) [1]: 0.025 (1.2310) | SHAQ Visual Analogue Scale - Breathing Problems, Change from Baseline, Median [1]: 0.000 | SHAQ Visual Analogue Scale - Breathing Problems, In-Clinic Visit (Day 12), Mean (SD) [1]: 1.388 (2.2783) | SHAQ Visual Analogue Scale - Breathing Problems, In-Clinic Visit (Day 12), Median [1]: 0.300 | SHAQ Visual Analogue Scale - Breathing Problems, Percent Change from Baseline, Mean (SD) [1]: 50.12 (200.437) % | SHAQ Visual Analogue Scale - Breathing Problems, Percent Change from Baseline, Median [1]: −16.00% | SHAQ VAS Breathing Problems, Change from Baseline, Max [2]: 0.00 | SHAQ VAS Breathing Problems, Change from Baseline, Mean [2]: −0.300 | SHAQ VAS Breathing Problems, Change from Baseline, Min [2]: −1.20, | SHAQ VAS Breathing Problems, Change from Baseline, Q1 [2]: −0.600, | SHAQ VAS Breathing Problems, Change from Baseline, Q3 [2]: 0.000 | SHAQ VAS Breathing Problems, Day 12, Max [2]: 6.30 | SHAQ VAS Breathing Problems, Day 12, Mean [2]: 1.575 | SHAQ VAS Breathing Problems, Day 12, Min [2]: 0.00, | SHAQ VAS Breathing Problems, Day 12, Q1 [2]: 0.000, | SHAQ VAS Breathing Problems, Percent Change from Baseline, Max [2]: −16.0 | SHAQ VAS Breathing Problems, Percent Change from Baseline, Mean [2]: −16.00 | SHAQ VAS Breathing Problems, Percent Change from Baseline, Median [2]: −16.00 | SHAQ VAS Breathing Problems, Percent Change from Baseline, Min [2]: −16.0, | SHAQ VAS Breathing Problems, Percent Change from Baseline, Q1 [2]: −16.00, | SHAQ VAS Breathing Problems, Percent Change from Baseline, Q3 [2]: −16.00 | % improvement in Breathing (Cilnidipine 20 mg (n = 3)): 67% (median) | SHAQ VAS Breathing Problems, Change from Baseline, Max [3]: 0.60 | SHAQ VAS Breathing Problems, Change from Baseline, Median [3]: −0.250 | SHAQ VAS Breathing Problems, Change from Baseline, Min [3]: −2.00, | SHAQ VAS Breathing Problems, Change from Baseline, Q1 [3]: −1.400, | SHAQ VAS Breathing Problems, Change from Baseline, Q3 [3]: 0.450 | SHAQ VAS Breathing Problems, Day 12, Max [3]: 2.50 | SHAQ VAS Breathing Problems, Day 12, Mean [3]: 0.850 | SHAQ VAS Breathing Problems, Day 12, Median [3]: 0.450 | SHAQ VAS Breathing Problems, Day 12, Min [3]: 0.00, | SHAQ VAS Breathing Problems, Day 12, Q1 [3]: 0.200, | SHAQ VAS Breathing Problems, Day 12, Q3 [3]: 1.500 | SHAQ VAS Breathing Problems, Percent Change from Baseline, Max [3]: 150.0 | SHAQ VAS Breathing Problems, Percent Change from Baseline, Min [3]: −100.0, | SHAQ VAS Breathing Problems, Percent Change from Baseline, Q1 [3]: −83.33, | SHAQ VAS Breathing Problems, Percent Change from Baseline, Q3 [3]: 90.79 | Visual Analog Scale-Breathing Problems, Change from Baseline, Mean [4]: −0.300 | Visual Analog Scale-Breathing Problems, Change from Baseline, Median [4]: 0.000 | Visual Analog Scale-Breathing Problems, Percent Change from Baseline, Mean [4]: −16.00% | Visual Analog Scale-Breathing Problems, Percent Change from Baseline, Median [4]: −16.00% | Visual Analog Scale-Breathing Problems, Change from Baseline, Median (Modified ITT Population-Part A, Day 12, dose cilnidipine 20 mg, tadalafil 5 mg, alone or combined as labelled): −0.800 | Visual Analog Scale-Breathing Problems, In Clinic Visit (Day 12), Median (Modified ITT Population-Part A, dose cilnidipine 10 mg, tadalafil 5 mg, alone or combined as labelled): 0.000 | Visual Analog Scale-Breathing Problems, In Clinic Visit (Day 12), Mean [5]: 0.300 | Visual Analog Scale-Breathing Problems, In Clinic Visit (Day 12), Median [5]: 0.400 | SHAQ Visual Analogue Scale - Breathing Problems, In-Clinic Visit (Day 12), Mean (Pooled Cilnidipine 20 mg and Cilnidipine 20 mg + Tadalafil 5 mg (N = 8), Day 12, PP Population, Part A): 1.400 | SHAQ Visual Analogue Scale - Breathing Problems, Change from Baseline, Mean (SD) [6]: −0.388 (0.8725) | SHAQ Visual Analogue Scale - Breathing Problems, In-Clinic Visit (Day 12), Mean (SD) [6]: 1.213 (2.2229) | SHAQ Visual Analogue Scale - Breathing Problems, In-Clinic Visit (Day 12), Median [6]: 0.200 | SHAQ Visual Analogue Scale - Breathing Problems, Percent Change from Baseline, Mean (SD) [6]: −0.22 (97.721) % | % improvement in Breathing (Pooled Cilnidipine (n = 7)): 41% (median) | % Δ from baseline, VAS Breathing mean (Pooled cilnidipine (n=4)): −8.2% | VAS Breathing Problems Change from Baseline Max [7]: 1.00 | VAS Breathing Problems Change from Baseline Mean [7]: −0.175 | VAS Breathing Problems Change from Baseline Median [7]: 0.000 | VAS Breathing Problems Change from Baseline Min [7]: −1.20 | VAS Breathing Problems Change from Baseline Q1 [7]: −0.600 | VAS Breathing Problems Change from Baseline Q3 [7]: 0.000 | VAS Breathing Problems Day 12 Max [7]: 6.30 | VAS Breathing Problems Day 12 Median [7]: 0.000 | VAS Breathing Problems Day 12 Min [7]: 0.00 | VAS Breathing Problems Day 12 Q1 [7]: 0.000 | VAS Breathing Problems Day 12 Q3 [7]: 2.350 | VAS Breathing Problems Percent Change from Baseline Max [7]: 38.5% | VAS Breathing Problems Percent Change from Baseline Mean [7]: −26.05% | VAS Breathing Problems Percent Change from Baseline Median [7]: −21.33% | VAS Breathing Problems Percent Change from Baseline Min [7]: −100.0% | VAS Breathing Problems Percent Change from Baseline Q1 [7]: −63.33% | VAS Breathing Problems Percent Change from Baseline Q3 [7]: 11.23% | VAS Breathing Problems Change from Baseline Max [8]: 3.70 | VAS Breathing Problems Change from Baseline Median [8]: 0.000 | VAS Breathing Problems Change from Baseline Min [8]: −2.00 | VAS Breathing Problems Change from Baseline Q1 [8]: −0.800 | VAS Breathing Problems Change from Baseline Q3 [8]: 0.600 | VAS Breathing Problems Day 12 Max [8]: 6.90 | VAS Breathing Problems Day 12 Median [8]: 0.400 | VAS Breathing Problems Day 12 Min [8]: 0.00 | VAS Breathing Problems Day 12 Q1 [8]: 0.000 | VAS Breathing Problems Day 12 Q3 [8]: 0.700 | VAS Breathing Problems Percent Change from Baseline Max [8]: 600.0% | VAS Breathing Problems Percent Change from Baseline Min [8]: −100.0% | VAS Breathing Problems Percent Change from Baseline Q1 [8]: −75.00% | VAS Breathing Problems Percent Change from Baseline Q3 [8]: 150.00% | VAS Breathing Problems Change from Baseline Max [9]: 0.30 | VAS Breathing Problems Change from Baseline Median [9]: 0.000 | VAS Breathing Problems Change from Baseline Min [9]: −2.00 | VAS Breathing Problems Change from Baseline Q1 [9]: −1.200 | VAS Breathing Problems Change from Baseline Q3 [9]: 0.000 | VAS Breathing Problems Day 12 Max [9]: 6.30 | VAS Breathing Problems Day 12 Median [9]: 0.000 | VAS Breathing Problems Day 12 Min [9]: 0.00 | VAS Breathing Problems Day 12 Q1 [9]: 0.000 | VAS Breathing Problems Day 12 Q3 [9]: 0.500 | VAS Breathing Problems Percent Change from Baseline Max [9]: 150.0% | VAS Breathing Problems Percent Change from Baseline Mean [9]: −8.17% | VAS Breathing Problems Percent Change from Baseline Median [9]: −41.33% | VAS Breathing Problems Percent Change from Baseline Min [9]: −100.0% | VAS Breathing Problems Percent Change from Baseline Q1 [9]: −83.33% | VAS Breathing Problems Percent Change from Baseline Q3 [9]: 67.00%
